What was measured:
[1] = molecular target: T1, Humicola insolens cellobiose oxidase (CBO, 92 kDa, pI 4.0) (Mycothermus thermophilus, UniProt Q9P8H5); settings: for Km: read-out: Km (electron donor), pH 7.5; for kcat (electron donor): sugar + 90 μM DCPIP, mol oxidized cellobiose/s/mol enzyme
T1 sequence (Q9P8H5 24-785): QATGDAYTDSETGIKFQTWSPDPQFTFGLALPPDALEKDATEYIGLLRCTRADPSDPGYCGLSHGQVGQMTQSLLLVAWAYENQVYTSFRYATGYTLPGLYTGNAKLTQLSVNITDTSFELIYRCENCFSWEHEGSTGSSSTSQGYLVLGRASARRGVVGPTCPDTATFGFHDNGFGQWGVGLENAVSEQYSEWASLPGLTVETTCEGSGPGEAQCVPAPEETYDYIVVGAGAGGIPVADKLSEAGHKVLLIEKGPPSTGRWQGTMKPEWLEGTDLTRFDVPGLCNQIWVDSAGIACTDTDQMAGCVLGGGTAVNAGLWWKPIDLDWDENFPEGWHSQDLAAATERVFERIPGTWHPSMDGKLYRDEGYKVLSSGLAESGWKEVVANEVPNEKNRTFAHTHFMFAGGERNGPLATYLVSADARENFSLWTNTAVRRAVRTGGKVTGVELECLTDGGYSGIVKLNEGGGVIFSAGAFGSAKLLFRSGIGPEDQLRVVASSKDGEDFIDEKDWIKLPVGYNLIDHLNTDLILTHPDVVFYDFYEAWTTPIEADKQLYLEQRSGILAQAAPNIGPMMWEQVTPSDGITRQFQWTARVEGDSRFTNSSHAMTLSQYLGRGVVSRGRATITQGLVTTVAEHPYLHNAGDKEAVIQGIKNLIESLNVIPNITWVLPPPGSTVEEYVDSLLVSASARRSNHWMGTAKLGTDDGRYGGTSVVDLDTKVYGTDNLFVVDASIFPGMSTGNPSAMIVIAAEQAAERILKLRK
Protocol: The measurements were performed in 0.1M sodium phosphate buffer at pH 7.5 at 40° C. 450 μl of a mixture of 100 μM of 2,6-Dichlorophenol-indophenol (DCPIP, Merck), 250 μM of cellobiose (Sigma) were mixed with 50 μl enzyme. Units of activity equals μmol cellobiose oxidized (DCPIP reduced) per min.
All measurements were performed in 0.1M sodium phosphate buffer, pH 7.5, at 40° C. […] The reactions were monitored for 400 s as changes in absorbance at the appropirate wavelength (see above). […] The catalytic constants (kcat) were expressed as mol of oxidized cellobiose/s/mol of enzyme. […] The kinetic constants were determined using Lineweaver-Burke plots and were the result of dual determinations.

EG C (cellulase) = assay: Coupled cellobiose oxidase/DCPIP assay for cellulases; assay type: biochemical; settings: reduced cellodextrin substrate
Text: (§1) The ability of the cellobiose oxidase to oxidize cellodextrins by means of an electron acceptor was utilized in an assay for cellulases. […] With this assay the kinetic constants for reduced cellodextrins of 5 different cellulases have been determined (table 2). […] The enzymes show very different substrate specificity, some of them requiring quite long substrates making it impossible to use the umbelliferyl cellobiosides and lactosides available for steady state kinetic.

EG A (cellulase) = assay: as above; assay type: biochemical; settings: reduced cellodextrin substrate
Text: as §1

[2] = tested on: Endo (cellulase, first line of the table); assay: as above; assay type: biochemical; settings: reduced cellodextrin substrate
Text: as §1

Endo B (cellulase) = assay: as above; assay type: biochemical; settings: reduced cellodextrin substrate
Text: as §1

[3] = 0.1M sodium phosphate buffer, pH 7.5, 40° C.

CC(C)(C)C1=CC(=O)C(=O)C(C(C)(C)C)=C1 [Benzoquinone, 3,5-di-tert-butyl-1,2-benzoquinone] was tested, and the “kcat (electron acceptor)” value ([1]; electron acceptor + 225 μM cellobiose, 0.1M sodium phosphate buffer, pH 7.5, 40° C.) was 15 s⁻¹.
For OC[C@H]1O[C@@H](O[C@H]2[C@H](O)[C@@H](O)[C@H](O[C@H]3[C@H](O)[C@@H](O)[C@H](O[C@H]4[C@H](O)[C@@H](O)[C@H](O[C@H]5[C@H](O)[C@@H](O)C(O)O[C@@H]5CO)O[C@@H]4CO)O[C@@H]3CO)O[C@@H]2CO)[C@H](O)[C@@H](O)[C@@H]1O (stereo partly shown) [Cellopentaose], the Km [1] was 17 µM and the “kcat (electron donor)” value [1, 3] was 8.3 s⁻¹.
OC[C@H]1O[C@@H](O[C@H]2[C@H](O)[C@@H](O)[C@H](O[C@H]3[C@H](O)[C@@H](O)[C@H](O[C@H]4[C@H](O)[C@@H](O)C(O)O[C@@H]4CO)O[C@@H]3CO)O[C@@H]2CO)[C@H](O)[C@@H](O)[C@@H]1O (stereo partly shown) [Cellotetraose] was tested, and the “kcat (electron donor)” value [1, 3] was 8.5 s⁻¹.
With OC[C@H]1O[C@@H](O[C@H]2[C@H](O)[C@@H](O)[C@H](O[C@H]3[C@H](O)[C@@H](O)C(O)O[C@@H]3CO)O[C@@H]2CO)[C@H](O)[C@@H](O)[C@@H]1O (stereo partly shown) [Cellotriose] the “kcat (electron donor)” value [1, 3] was 8.5 s⁻¹.
For OC[C@H]1OC(O)[C@H](O)[C@@H](O)[C@@H]1O (stereo partly shown) [Glucose], the “kcat (electron donor)” value [1, 3] was 0 s⁻¹.
CC(=O)N[C@H]1[C@H](O[C@H]2[C@H](O)[C@@H](NC(C)=O)C(O)O[C@@H]2CO)O[C@H](CO)[C@@H](O)[C@@H]1O (stereo partly shown) [N,N-Diacetylchitobiose] was tested, and the “kcat (electron donor)” value [1, 3] was 0 s⁻¹.
In the case of CC(=O)N[C@H]1C(O)O[C@H](CO)[C@@H](O[C@@H]2O[C@H](CO)[C@H](O)[C@H](O)[C@H]2O)[C@@H]1O (stereo partly shown) [N-Acetyllactosamine], the “kcat (electron donor)” value [1, 3] is reported as 0 s⁻¹.
OC[C@@H](O)[C@@H](O[C@@H]1O[C@H](CO)[C@@H](O[C@@H]2O[C@H](CO)[C@@H](O[C@@H]3O[C@H](CO)[C@@H](O)[C@H](O)[C@H]3O)[C@H](O)[C@H]2O)[C@H](O)[C@H]1O)[C@H](O)[C@@H](O)CO [Red. DP4] showed a Km (EG C (cellulase)) of 1600 µM, a kcat (EG C (cellulase)) of 0.43 s⁻¹ and a kcat (EG A (cellulase)) of 0 s⁻¹. The Km [2] was 26 µM, the kcat [2] was 29 s⁻¹ and the Km (Endo B (cellulase)) was 1500 µM. The kcat (Endo B (cellulase)) was 0.84 s⁻¹.
OC[C@@H](O)[C@@H](O[C@@H]1O[C@H](CO)[C@@H](O[C@@H]2O[C@H](CO)[C@@H](O[C@@H]3O[C@H](CO)[C@@H](O[C@@H]4O[C@H](CO)[C@@H](O)[C@H](O)[C@H]4O)[C@H](O)[C@H]3O)[C@H](O)[C@H]2O)[C@H](O)[C@H]1O)[C@H](O)[C@@H](O)CO [Red. DP5] was tested, and the Km (EG C (cellulase)) was 68 µM, the kcat (EG C (cellulase)) was 13 s⁻¹ and the Km (EG A (cellulase)) was 460 µM. The kcat (EG A (cellulase)) was 0.00 s⁻¹, the Km [2] was 14 µM and the kcat [2] was 40 s⁻¹. The Km (Endo B (cellulase)) was 150 µM and the kcat (Endo B (cellulase)) was 0.86 s⁻¹.
Work on OC[C@@H](O)[C@@H](O[C@@H]1O[C@H](CO)[C@@H](O[C@@H]2O[C@H](CO)[C@@H](O[C@@H]3O[C@H](CO)[C@@H](O[C@@H]4O[C@H](CO)[C@@H](O[C@@H]5O[C@H](CO)[C@@H](O)[C@H](O)[C@H]5O)[C@H](O)[C@H]4O)[C@H](O)[C@H]3O)[C@H](O)[C@H]2O)[C@H](O)[C@H]1O)[C@H](O)[C@@H](O)CO [Red. DP6] yielded a Km (EG C (cellulase)) of 71 µM, a kcat (EG C (cellulase)) of 11 s⁻¹ and a Km (EG A (cellulase)) of 54 µM. For the same compound, the kcat (EG A (cellulase)) was 0.15 s⁻¹, the Km (Endo B (cellulase)) was 52 µM and the kcat (Endo B (cellulase)) was 14 s⁻¹.
OC1OC[C@@H](O[C@@H]2OC[C@@H](O)[C@H](O)[C@H]2O)[C@H](O)[C@H]1O (stereo partly shown) [Xylobiose] was tested, and the Km [1] was 7100 µM and the “kcat (electron donor)” value [1, 3] was 2.15 s⁻¹.
